# Legend:
# [1] = tested on: RA response element (RARE); assay: RARE luciferase reporter gene assay in MG5 cells; format: cell-based, mouse; details: pGL3-RARE-Luc; 5 μM each, 24 h; fold induction relative to vehicle-treated cells
# Method: MG5 cells (2×10^6 cells in 100 μl) were transfected by electroporation with 1.0 μg of pGL3-RARE-Luc (#13458; Addgene) or pGL3-Luc vector (Promega) and 0.25 μg of Renilla luciferase vector (phRL-TK) (Promega), using the Nucleofector transfection system (program #D-032; Amaxa) according to the manufacturer's protocol, taken up in the medium, and seeded in 48-well plates (1.25×10^5 cells/well). For some experiments, cells were transfected with 1.0 μg of pGL3-RARE-Luc or pGL3-Luc vector and 0.25 μg of phRL-TK in the presence of 0.25 μg each of pcDNA3.1-RAR (#16287; Addgene) and pcDNA3.1-RXR (#8882; Addgene). An empty pcDNA3.1 expression vector was used to maintain equal amounts of DNA for each transfection. Five hours after transfection, the cells were exposed to Am80 (5 μM) and/or HX630 (5 μM) in the medium for 24 h. Luciferase activities were determined in cell lysates. Firefly luciferase activity was normalized to that of Renilla luciferase for each well.
# IL-4Rα = assay: Immunoblot of IL-4Rα in MG5 cells; format: cell-based, mouse; details: 5 μM each, 48 h
# Text: Primary microglia (type 1) were harvested from primary mixed glial cell cultures prepared from neonatal Wistar rat pups, as previously reported. Mouse microglial cell line MG5 and mouse glial cell line A1 were maintained as previously described. Mouse neuroblastoma cell line N1E-115 and Neuro 2a (American Type Culture Collection, Manassas, Va., USA) were maintained in Dulbecco's modified Eagle's medium (DMEM) supplemented with 10% fetal bovine serum (FBS), 20 U/ml penicillin (Invitrogen, Gaithersburg, Md., USA), and 20 μg/ml streptomycin (Invitrogen). Primary rat microglia were treated with Am80 (5 μM) and/or HX630 (5 μM) in the presence and absence of GW9662 (10 μM) for 48 h in Eagle's MEM supplemented with 10% FBS and 0.2% glucose. MG5 cells and A1 cells were treated with Am80 (5 μM) and/or HX630 (5 μM) for 48 h in DMEM containing 10% FBS. […]
# Rat primary microglia and mouse microglial MG5 cells (5×10^6 cells per 100-mm dish) were homogenized in RIPA buffer [10 mM Hepes-NaOH (pH 7.4) containing 150 mM NaCl, 1 mM EDTA, 1% Triton X-100, 0.5% sodium deoxycholate, 0.1% SDS, 1 mM PMSF, 1 mg/ml leupeptin. […] Bound horseradish peroxidase-labeled antibodies were then detected via chemiluminescence (an ECL kit; Pierce, Rockford, Ill., USA). Protein concentrations were determined with the BCA Protein Assay Reagent (Pierce) and Bradford Protein Assay Reagent (Pierce).
smiles,measurement,setting,value
"CC1(C)CCC(C)(C)c2cc(NC(=O)c3ccc(C(=O)O)cc3)ccc21 [Am80, 4-{(5,6,7,8-tetrahydro-5,5,8,8-tetramethyl-2-naphthalenyl)carbamoyl}benzoic acid]",RARE reporter activity in MG5 cells,[1],4.3 fold
same,IL-4Rα protein levels in MG5 cells,IL-4Rα,did not increase
"CN1c2ccccc2N=C(c2ccc(C(=O)O)cc2)c2cc3c(cc21)C(C)(C)CCC3(C)C [HX630, 4-[5H-2,3-(2,5dimethyl-2,5-hexano)-5-methyldibenzo[b,e]-diazepin-11-yl]benzoic acid]",RARE reporter activity in MG5 cells,[1],no increase
same,IL-4Rα protein levels in MG5 cells,IL-4Rα,did not increase

# Reference: patent publication US9861640B2, “Medicament for treatment of Alzheimer's disease” (KEMPHYS LTD., priority 2013, dated 2018)
